Source: patent publication US20110034466A1, “NOVEL FIVE-MEMBERED RING COMPOUND” (priority 2008, published 2011)

Assays:
rat lung membrane SMBS = assay: Receptor-binding assessment test using rat lung membranes ([125I]-iodocyanopindolol ligand binding assay); conditions: 1 μM test compound; ratio of inhibiting specific binding of [125I]-iodocyanopindolol to rat lung membrane SMBS
Protocol: Receptor-Binding Assessment Test of Compounds Using Rat Lung Membranes
The assessment test was carried out according to the method of Sugasawa, T. et al., J. Biol. Chem., 272, 21244-21252 (1997).
Preparation of Rat Lung Membranes
Lung taken out from SD male rat (7-week old under test, Charles River Laboratories Japan, Inc.) was removed trachea and blood vessels to shred and washed with iced tris-saline buffer (10 mM tris hydrochloric acid-154 mM sodium chloride, pH7.4). The resultant was homogenized by Hiscotron with ice-cold tris-saline buffer containing a homogenization buffer (1 mM ethylenediaminetetraacetic acid (EDTA), 1 mM 4-(2-aminoethyl)benzenesulfonyl fluoride (AEBSF), 5 μg/ml aprotinin, 5 μg/ml leupeptine) (maximum rate: 1 minute). The supernatant after low-speed centrifugation (1500×g, 20 minutes, 4° C.) was ultracentrifuged (100000×g, 20 minutes, 4° C.), and the pellet was suspended in tris-saline buffer to store at −80° C. The protein concentrations were determined by Bio-Rad Protein Assay Kit using bovine serum albumin (BSA) as a standard.
To each well in protein-nonabsorptive round-bottom 96-well assay plate (commercially available from Iwaki Glass Co., Ltd.) were added tris-saline buffer (200 μl) containing 1 nM [^125I]-iodocyanopindolol (commercially available from Amersham plc), 10 μM serotonine, 20 μm dl-propranolol, 10 μM phentolamine, 1.1 mM ascorbic acid and 100 μg lung membrane, and the mixture was pipetted to combine and then incubated at 37° C. for 30 minutes. The test compounds were dissolved in 100% dimethyl sulfoxide solution, and thereto was added 2 μl (final DMSO concentration: 1%). In order to calculate nonspecific binding amounts, to the mixture was added L-threo-3-(3,4-dihydroxyphenyl)-N-[3-(4-fluorophenyl)propyl]serine pyrrolidine amide at 100 μM of the final concentration as an alternative to the test compounds. During this time, 100 μl of 0.3% polyethyleneimine (PEI)/tris-saline buffer was added to MultiScreen plate (96-well B glass fiber, Millipore Cat. No. MAFB NOB10), and incubated for over 30 minutes. The resultant was filtered with aspiration (aspiration by the addition of 200 μl iced tris-saline buffer) to wash, and the reaction solutions on 96-well assay plate were filtered with aspiration to wash four times on MultiScreen plate. B glass fiber filter paper at the bottom of MultiScreen plate was punched out, and γ-ray doses of [^125I]-iodocyanopindolol trapped on the filter paper were determined as binding amounts. The binding amounts in the presence of DMSO (final concentration: 1%) were total binding amounts, and the binding amounts in the presence of 100 μM L-threo-3-(3,4-dihydroxyphenyl)-N-[3-(4-fluorophenyl)propyl]serine pyrrolidine amide were nonspecific binding amounts. The values subtracted the nonspecific binding amounts from the total binding amounts were the specific binding amounts. The binding activity of a compound was calculated according to the following formula, which was shown in the ratio of inhibiting the specific binding of [^125I]-iodocyanopindolol to rat lung membrane SMBS by the test compound.

[1] = system: Guinea pig late asthma model; assay: Guinea pig late asthma model (ovalbumin sensitized, respiratory function sRaw/TV); type: in vivo; conditions: 3 mg/kg orally one hour before antigen challenge
Protocol: Assessment of Compounds in Guinea Pig Late Asthma Model
The assessment was carried out using a compound obtained in Example 52.
Hartley male guinea pigs (commercially available from Japan SLC, Inc.) were pre-bred about 1 week after arrival, and then exposed by inhalation to 2% (w/v) ovalbumin (OA) saline in a plastic box (4 guniea pigs/box) for 5 minutes using a ultrasonic nebulizer (OMRON NE-U12, condition: maximum nebulizing amounts, maximum air volume), and sensitized (day 0). The same operation was carried out on day 7. On day 14 or 15, each guinea pig was administered 2% OA by inhalation for 5 minutes to initiate a response (challenge). […]
A determination and analysis of respiratory function were carried out according to the method of Penny A. Hutson et al. Am Rev Respir Dis 1988 137, 548-557. The respiratory function was determined before the antigen challenge (before drug administration) and 5 minutes and 1, 2, 3, 4, 5, 6, 7 and 8 hours after the antigen challenge, and wave profiles were imported using MacLab Chart v3.4 (AD Instruments) and analyzed later. […] The sRaw/TV values subtracting the former values were plotted against measured times, and each area under the curve (AUC4-8 hr) of each animal was calculated to compare each other in the range of 4 to 8 hours after the antigen challenge. […]

[2] = system: Corticosterone generation; assay: Assessment test of steroid hormone synthesis inhibition (Corticosterone generation in rat adrenal gland cells); type: cell-based; conditions: 10 μM test article, rat adrenal cells with cAMP, 2 hours, read-out: Steroid Synthesis Inhibition Rate (%) (10 μM)
Text: Assessment Test of Steroid Hormone Synthesis Inhibition
• Cell Strainer (BD Falcon®) • Cell Titer-Glo® (Promega) • Collagenase from Clostridium histolyticum (Sigma-Aldrich) • Corticosterone EIA kit (Cayman) • Dimethylsulfoxide (referred to as DMSO hereinafter) (nacalai tesque) • D-MEM (GIBCO) • DNase I (Invitrogen) • Fetal Bovine Serums (referred to as FBS hereinafter) (Bioflud) • Multiple well plates for adhesive cell culture, 96 wells (IWAKI) • N^6,2′-O-Dibutyryladenosine 3′,5′-cyclic monophosphate sodium salt (referred to as cAMP hereinafter) (Sigma) • Penicillin Streptomycin Mixed Solution (nacalai tesque)
Control examples 1 to 4: Control example 1 was Example 350 of Patent Document 2. Control examples 2 to 4 were synthesized according to Patent Document 2.
Adrenal glands were taken out from rats, and removed excess connective tissues, adiposes and membranes in D-MEM. The adrenal glands were transferred to polytubes, and quickly segmentalized with scissors. Thereto was added D-MEM containing 1 mg/mL collagenase and 0.25 μL DNase 1, and then the mixture was shaken at 37° C. for 10 minutes in 80 times/minute. Then, the mixture was pipetted by 1 mL truncated pipette tip, and shaken again under the same condition. After 10 minutes, the mixture was pipetted again by 1 mL pipette tip, and the cell suspension was filtered through metal mesh. The filtrate was centrifuged at 4° C. for 5 minutes in 500 g. The supernatant was removed, and thereto was added a mixed solution of 0.16 M NH4Cl and 0.17 M Tris-HCl in 3 mL. The mixture was let stand on ice for 5 minutes, and then centrifuged under the same condition. Then, the supernatant was removed and then thereto was added D-MEM. The cell suspension was prepared and centrifuged under the same condition. Again, the supernatant was removed and then thereto was added D-MEM to give a cell suspension. The cell suspension was filtered by Cell Strainer (BD Falcon®). The filtrate was centrifuged under the same condition. After the completion of the centrifugation, the supernatant was removed, and thereto was added D-MEM containing 1% Penicillin Streptomycin Mixed Solution and 10% FBS. The mixture was seeded in Multiple well plate for adhesive cell culture, 96 wells (IWAKI) in 10000 cells/well, and incubated at 37° C. overnight in CO2 incubator.
Test article concentrations were prepared in DMSO to 2000 μM, and D-MEM containing 20 μM test article in D-MEM was prepared.
Cell-seeded plate was incubated overnight, and then the medium was removed and thereto was added D-MEM containing 20 μM test article in 50 μL/well. Then, to the mixture was promptly added D-MEM containing 20 μM cAMP in 50 μL/well so that the final concentration of the test article was 10 μM. After the addition of 2 types of D-MEM, the mixture was incubated at 37° C. for 2 hours in CO2 incubator. After 2 hours, the supernatant (50 μL) of the medium was collected. For cells, the cell toxicity of the test article was assessed according to a conventional method using Cell Titer-Glo® (Promega). For the collected supernatant, the Corticosterone concentration in the supernatant was determined according to a conventional method using Corticosterone EIA kit (Cayman).
The inhibition rate of 10 μM test article to Corticosterone generation was calculated according to the following formula confirming that the cell toxicity by the test article was not recognized.

Q: What does the source list for CNC(=O)NCCn1c(-c2ccc(C(=O)N3CCOCC3)cc2)cs/c1=N\c1cccc(F)c1 [Example 52, N-{2-[(2Z)-2-[(3-Fluorophenyl)imino]-4-[4-(morpholin-4-ylcarbonyl)phenyl]-1,3-thiazol-3(2H)-yl]ethyl}-N′-methylurea]?
A: Binding Activity (%) (1 μM) (rat lung membrane SMBS): 59%; AUC4-8 hr ((sRaw/TV) · h) ([1]; 4 to 8 hours after antigen challenge): 0.427 (sRaw/TV) · h; Improvement Rate (%) ([1]; AUC4-8 hr versus control group, p<0.01 Dunnett's test): 54%; inhibition at 10 µM [2]: 0%
